Data on 25 compounds can be found in US9045445B2, “Glycine transporter-1 inhibitors, methods of making them, and uses thereof” (Albany Molecular Research, Inc., priority 2010, dated 2015).

SMILES strings stand for the structures. Structures can show the parent of a compound that is named as a salt.

The target of this experiment is T1, glycine transporter-1 (GlyT-1) (Homo sapiens, UniProt P48067).
T1 construct: JAR cells (ATCC#HTB-144), which endogenously express GlyT-1; host or cells: JAR human choriocarcinoma cells
T1 sequence (P48067 1-706): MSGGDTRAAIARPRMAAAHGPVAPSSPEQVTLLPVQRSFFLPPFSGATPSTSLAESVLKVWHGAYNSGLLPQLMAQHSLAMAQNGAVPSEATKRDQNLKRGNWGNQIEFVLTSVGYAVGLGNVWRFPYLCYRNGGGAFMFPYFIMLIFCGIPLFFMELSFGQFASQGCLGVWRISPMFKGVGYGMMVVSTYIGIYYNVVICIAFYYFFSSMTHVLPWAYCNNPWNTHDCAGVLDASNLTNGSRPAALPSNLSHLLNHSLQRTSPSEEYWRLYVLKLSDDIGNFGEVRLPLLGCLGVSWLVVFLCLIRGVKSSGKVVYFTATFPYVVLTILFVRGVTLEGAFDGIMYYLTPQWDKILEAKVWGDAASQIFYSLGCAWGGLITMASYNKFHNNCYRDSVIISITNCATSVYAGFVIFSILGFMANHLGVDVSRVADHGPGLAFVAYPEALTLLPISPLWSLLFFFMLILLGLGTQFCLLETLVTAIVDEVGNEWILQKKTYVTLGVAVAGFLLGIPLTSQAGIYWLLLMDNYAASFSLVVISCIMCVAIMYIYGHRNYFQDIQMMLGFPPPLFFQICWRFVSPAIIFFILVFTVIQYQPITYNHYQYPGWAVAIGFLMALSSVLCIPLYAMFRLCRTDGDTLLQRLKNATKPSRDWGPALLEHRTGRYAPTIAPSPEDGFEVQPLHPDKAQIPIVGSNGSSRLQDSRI
In words: [14C]glycine uptake assay in JAR cells endogenously expressing GlyT-1 (scintillation proximity). It counts as cell-based. The note with it: JAR cells, [14C]glycine 5 μM, 3 hour incubation; read-out: GlyT-1 IC50. The gist of the method: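 IC50 comes from a four-parameter fit of nine-point, duplicate curves measuring inhibition of 5 μM [14C]glycine uptake, read by scintillation proximity after 3 h at 37 °C. Cells are human JAR, which express GlyT-1 endogenously, given 10 min compound pre-treatment in pH 7.4 buffer with 5 mM alanine and 0.75% DMSO.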
As a reminder, the IC50 is the midpoint of a concentration-inhibition curve. `CC(=O)CS(=O)(=O)N1CCN(C2(CNC(=O)c3ccc(C(F)(F)F)cc3Cl)CCC(F)(F)CC2)CC1` [compound 280, 2-Chloro-N-((4,4-difluoro-1-(4-(2-oxopropylsulfonyl)piper-azin-1-yl)cyclohexyl)methyl)-4-(trifluoromethyl) benzamide Hydrochloride]: the IC50 is 61 nM.

Consider `CCCS(=O)(=O)N1CCN(C2(CNC(=O)c3c(C)cccc3OC)CCCCC2)CC1` [compound 3, 2-Methoxy-6-methyl-N-((1-(4-(propylsulfonyl)piperazin-1-yl)cyclohexyl)methyl) benzamide Hydrochloride], for which the IC50 is 541 nM.

With `CCCS(=O)(=O)N1CCN(C2(CNC(=O)c3ccc(F)cc3C(F)(F)F)CCC(F)(F)CC2)CC1` [compound 148, N-((4,4-Difluoro-1-(4-(propylsulfonyl)piperazin-1-yl)cyclohexyl)methyl)-4-fluoro-2-(trifluoromethyl)benzamide Hydrochloride], the concentration for half-maximal inhibition (IC50) amounted to 30 nM.

For the compound `CCC(F)(F)S(=O)(=O)N1CCN(C2(CNC(=O)c3ccc(C(F)(F)F)cc3Cl)CCC(F)(F)CC2)CC1` [compound 251, 2-Chloro-N-((1-(4-(1,1-difluoropropylsulfonyl)piperazin-1-yl)-4,4-difluorocyclohexyl)methyl)-4-(trifluoromethyl) benzamide Hydrochloride], the IC50 was 987 nM.

With `CCCS(=O)(=O)N1CCN(C2(CNC(=O)c3c(F)cccc3OC(F)(F)F)CCC(F)(F)CC2)CC1` [compound 158, N-((4,4-Difluoro-1-(4-(propylsulfonyl)piperazin-1-yl)cyclohexyl)methyl)-2-fluoro-6-(trifluoro-methoxy)benzamide Hydrochloride], the IC50 was determined as 35 nM.

As to `CCCS(=O)(=O)N1CCN(C2(CNC(=O)c3c(N)cccc3Cl)CCC2)CC1` [compound 78, 2-Amino-6-chloro-N-((1-(4-(propylsulfonyl)piperazin-1-yl)cyclobutyl)methyl) benzamide Hydrochloride], the IC50 came out at 2440 nM.

As to `CCCS(=O)(=O)N1CCN(C2(CNC(=O)c3ccc(C(F)(F)F)cc3F)CCC(F)(F)CC2)CC1` [compound 150, N-((4,4-Difluoro-1-(4-(propylsulfonyl)piperazin-1-yl)cyclohexyl)methyl)-2-fluoro-4-(trifluoromethyl)benzamide Hydrochloride], the IC50 came to 61 nM.

As for `CCCS(=O)(=O)N1CCN(C2(CNC(=O)c3ccccc3-c3ccccc3)CCCCC2)CC1` [compound 34, N-((1-(4-(Propylsulfonyl)piperazin-1-yl)cyclohexyl)methyl) biphenyl-2-carboxamide Hydrochloride], the IC50 was determined as 646 nM.

Regarding `CCCS(=O)(=O)N1CCN(C2(CNC(=O)c3ccccc3F)CCC(F)(F)CC2)CC1` [compound 131, N-((4,4-Difluoro-1-(4-(propylsulfonyl)piperazin-1-yl)cyclohexyl)methyl)-2-fluorobenzamide Hydrochloride], the IC50 was found to be 291 nM.

In the case of `CCCS(=O)(=O)N1CCN(C2(CNC(=O)c3cc(C(F)(F)F)ccc3C(F)(F)F)CCC(F)(F)CC2)CC1` [compound 248, N-((4,4-Difluoro-1-(4-(propylsulfonyl)piperazin-1-yl)cyclohexyl)methyl)-2,5-bis(trifluoromethyl) benzamide Hydrochloride], the IC50 amounted to 159 nM.

Take `CCC(F)S(=O)(=O)N1CCN(C2(CNC(=O)c3ccc(C(F)(F)F)cc3Cl)CCC(F)(F)CC2)CC1` (stereo not drawn) [compound 244, 2-Chloro-N-((4,4-difluoro-l-(4-(1-fluoropropylsulfonyl)piperazin-1-yl)cyclohexyl)methyl)-4-(trifluoromethyl)benzamide Hydrochloride]: the IC50 amounted to 51 nM.

As to `CCS(=O)(=O)N1CCN(C2(CNC(=O)c3ccc(C(C)(F)F)cc3Cl)CCC(F)(F)CC2)CC1` [compound 205, 2-Chloro-4-(1,1-difluoroethyl)-N-((1-(4-(ethylsulfonyl)piperazin-1-yl)-4,4-difluorocyclohexyl)methyl) benzamide Hydrochloride], the IC50 was 187 nM.

For `Cn1cnc(S(=O)(=O)N2CCN(C3(CNC(=O)c4c(Cl)cccc4Cl)CCC(F)(F)CC3)CC2)c1` [compound 174, 2,6-Dichloro-N-((4,4-difluoro-1-(4-(1-methyl-1H-imidazol-4-ylsulfonyl)piperazin-1-yl)cyclohexyl)methyl) benzamide Hydrochloride], the IC50 was found to be 5 nM.

Take `Cn1cc(S(=O)(=O)N2CCN(C3(CNC(=O)c4cc(F)c(Cl)cc4F)CCC(F)(F)CC3)CC2)nn1` [compound 238, 4-Chloro-N-((4,4-difluoro-1-(4-(1-methyl-1H-1,2,3-triazol-4-ylsulfonyl)piperazin-1-yl)cyclohexyl)methyl)-2,5-difluorobenzamide Hydrochloride]: the IC50 stood at 12 nM.

Consider `CCCS(=O)(=O)N1CCN(C2(CNC(=O)c3ccc(Cl)c(Cl)c3)CCCCC2)CC1` [compound 26, 3,4-Dichloro-N-((1-(4-(propylsulfonyl)piperazin-1-yl)cyclohexyl)methyl) benzamide Hydrochloride], for which the concentration for half-maximal inhibition (IC50) is 245 nM.

Regarding `CCS(=O)(=O)N1CCN(C2(CNC(=O)c3cc(F)c(Cl)cc3Cl)CCC(F)(F)CC2)CC1` [compound 212, 2,4-Dichloro-N-((1-(4-(ethylsulfonyl)piperazin-1-yl)-4,4-difluorocyclohexyl)methyl)-5-fluorobenzamide Hydrochloride], the IC50 turned out to be 209 nM.

Turning to `CC(NC(=O)c1ccc(C(F)(F)F)cc1Cl)C1(N2CCN(S(=O)(=O)c3cn(C)nn3)CC2)CCCC1` (stereo not shown) [compound 282, 2-Chloro-N-(1-(1-(4-(1-methyl-1H-1,2,3-triazol-4-ylsulfonyl)piperazin-1-yl)cyclopentyl)ethyl)-4-(trifluoromethyl)benzamide Hydrochloride], the IC50 was 29 nM.

`O=C(NCC1(N2CCN(S(=O)(=O)c3cccnc3)CC2)CCC(F)(F)CC1)c1c(F)cccc1F` [compound 269, N-((4,4-Difluoro-1-(4-(pyridin-3-ylsulfonyl)piperazin-1-yl)cyclohexyl)methyl)-2,6-difluorobenzamide Hydrochloride]: the IC50 came to 817 nM.

Regarding `CCS(=O)(=O)N1CCN(C2(CNC(=O)c3ccc(C(F)(F)F)cc3C(F)(F)F)CCC(F)(F)CC2)C(C)C1` (racemic) [compound 218, (±)-N-((1-(4-(Ethylsulfonyl)-2-methylpiperazin-1-yl)-4,4-difluorocyclohexyl)methyl)-2,4-bis(trifluoromethyl) benzamide Hydrochloride], the IC50 was found to be 86 nM.

For `CC1CN(S(=O)(=O)c2cn(C)nn2)C(C)CN1C1(CNC(=O)c2ccc(C(F)(F)F)cc2C(F)(F)F)CCC(F)(F)CC1` (stereo not shown) [compound 237, N-((1-(2,5-Dimethyl-4-(1-methyl-1H-1,2,3-triazol-4-ylsulfonyl)piperazin-1-yl)-4,4-difluorocyclohexyl)methyl)-2,4-bis(trifluoromethyl) benzamide Hydrochloride], the IC50 was determined as 2 nM.

In the case of `CCS(=O)(=O)N1CCN(C2(CNC(=O)c3c(Cl)ccc(C(F)(F)F)c3Cl)CCC(F)(F)CC2)CC1` [compound 215, 2,6-Dichloro-N-((1-(4-(ethylsulfonyl)piperazin-1-yl)-4,4-difluorocyclohexyl)methyl)-3-(trifluoromethyl) benzamide Hydrochloride], the IC50 is 2460 nM.

As for `CCCS(=O)(=O)N1CCN(C2(CNC(=O)c3ccc(Cl)cc3C)CCC(F)(F)CC2)CC1` [compound 153, 4-Chloro-N-((4,4-difluoro-1-(4-(propylsulfonyl)piperazin-1-yl)cyclohexyl)methyl)-2-methylbenzamide Hydrochloride], the IC50 is 69 nM.

As for `O=C(NCC1(N2CCN(S(=O)(=O)N3CCC3)CC2)CCC(F)(F)CC1)c1ccc(C(F)(F)F)cc1Cl` [compound 271, N-((1-(4-(azetidin-1-ylsulfonyl)piperazin-1-yl)-4,4difluorocyclohexyl)methyl)-2-chloro-4-(trifluoromethyl)benzamide Hydrochloride], the IC50 came out at 350 nM.

For `CCS(=O)(=O)N1CCN(C2(CNC(=O)c3c(F)cc(Cl)cc3F)CCC(F)(F)CC2)CC1` [compound 208, 4-Chloro-N-((1-(4-(ethylsulfonyl)piperazin-1-yl)-4,4-difluoro-cyclohexyl)methyl)-2,6-difluorobenzamide Hydrochloride], the IC50 came out at 137 nM.

Regarding `COc1ccccc1C(=O)NCC1(N2CCN(S(=O)(=O)c3cn(C)cn3)CC2)CCC(F)(F)CC1` [compound 177, N-((4,4-Difluoro-1-(4-(1-methyl-1H-imidazol-4-ylsulfonyl)piperazin-1-yl)cyclohexyl)methyl)-2-methoxybenzamide Hydrochloride], the IC50 stood at 34 nM.
